Laboratory results from ChEMBL document CHEMBL3792387, “A review on ROCK-II inhibitors: From molecular modelling to synthesis” (Bioorg Med Chem Lett, 2016).

What was measured:
[1] = molecular target: Rho-associated protein kinase 2 (Homo sapiens, UniProt O75116); test: Inhibition of ROCK-2 (unknown origin)
[2] = molecular target: Rho-associated protein kinase 1 (Homo sapiens, UniProt Q13464); test: Inhibition of ROCK-1 (unknown origin)
[3] = Inhibition of PKA (unknown origin); parameters: species or system Homo sapiens
[4] = Inhibition of PKA (unknown origin) using cyclic AMP response element binding protein as substrate after 5 mins in presence of [gamma-32P]-ATP; parameters: species or system Homo sapiens

Sequence of Rho-associated protein kinase 1 (Q13464 whole entry): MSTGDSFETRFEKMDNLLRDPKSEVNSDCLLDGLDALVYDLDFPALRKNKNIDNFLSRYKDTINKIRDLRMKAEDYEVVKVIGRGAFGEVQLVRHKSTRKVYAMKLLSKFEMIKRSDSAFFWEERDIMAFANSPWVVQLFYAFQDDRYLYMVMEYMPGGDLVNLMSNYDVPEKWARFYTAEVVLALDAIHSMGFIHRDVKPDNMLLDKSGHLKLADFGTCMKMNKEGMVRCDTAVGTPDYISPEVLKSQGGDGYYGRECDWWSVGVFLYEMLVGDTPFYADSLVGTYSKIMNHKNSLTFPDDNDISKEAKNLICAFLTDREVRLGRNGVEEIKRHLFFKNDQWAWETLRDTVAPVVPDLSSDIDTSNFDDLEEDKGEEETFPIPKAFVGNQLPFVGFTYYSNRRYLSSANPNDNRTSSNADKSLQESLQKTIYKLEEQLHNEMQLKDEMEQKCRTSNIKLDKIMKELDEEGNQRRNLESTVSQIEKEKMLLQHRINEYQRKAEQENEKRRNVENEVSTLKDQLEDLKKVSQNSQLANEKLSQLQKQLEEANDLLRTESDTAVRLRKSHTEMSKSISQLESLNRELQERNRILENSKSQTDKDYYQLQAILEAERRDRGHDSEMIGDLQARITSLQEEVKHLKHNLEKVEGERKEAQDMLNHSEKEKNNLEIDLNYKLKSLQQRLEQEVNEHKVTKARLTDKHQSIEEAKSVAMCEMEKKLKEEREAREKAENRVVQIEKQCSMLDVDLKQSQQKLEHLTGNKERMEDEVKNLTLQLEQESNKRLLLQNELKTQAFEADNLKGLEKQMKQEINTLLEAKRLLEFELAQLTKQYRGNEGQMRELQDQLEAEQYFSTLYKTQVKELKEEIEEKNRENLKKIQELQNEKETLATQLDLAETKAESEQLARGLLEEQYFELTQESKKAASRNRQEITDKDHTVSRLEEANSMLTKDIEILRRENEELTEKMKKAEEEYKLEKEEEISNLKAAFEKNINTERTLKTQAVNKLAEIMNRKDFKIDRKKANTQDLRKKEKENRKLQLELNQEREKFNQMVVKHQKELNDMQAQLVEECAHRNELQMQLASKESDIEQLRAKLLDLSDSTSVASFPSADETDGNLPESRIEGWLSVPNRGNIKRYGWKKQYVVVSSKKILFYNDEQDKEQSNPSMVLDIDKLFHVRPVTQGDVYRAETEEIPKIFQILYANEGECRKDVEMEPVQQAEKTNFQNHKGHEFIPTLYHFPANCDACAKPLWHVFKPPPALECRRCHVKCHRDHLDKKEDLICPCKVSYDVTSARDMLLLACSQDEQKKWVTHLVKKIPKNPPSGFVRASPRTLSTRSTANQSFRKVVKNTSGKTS
Sequence of Rho-associated protein kinase 2 (O75116 whole entry): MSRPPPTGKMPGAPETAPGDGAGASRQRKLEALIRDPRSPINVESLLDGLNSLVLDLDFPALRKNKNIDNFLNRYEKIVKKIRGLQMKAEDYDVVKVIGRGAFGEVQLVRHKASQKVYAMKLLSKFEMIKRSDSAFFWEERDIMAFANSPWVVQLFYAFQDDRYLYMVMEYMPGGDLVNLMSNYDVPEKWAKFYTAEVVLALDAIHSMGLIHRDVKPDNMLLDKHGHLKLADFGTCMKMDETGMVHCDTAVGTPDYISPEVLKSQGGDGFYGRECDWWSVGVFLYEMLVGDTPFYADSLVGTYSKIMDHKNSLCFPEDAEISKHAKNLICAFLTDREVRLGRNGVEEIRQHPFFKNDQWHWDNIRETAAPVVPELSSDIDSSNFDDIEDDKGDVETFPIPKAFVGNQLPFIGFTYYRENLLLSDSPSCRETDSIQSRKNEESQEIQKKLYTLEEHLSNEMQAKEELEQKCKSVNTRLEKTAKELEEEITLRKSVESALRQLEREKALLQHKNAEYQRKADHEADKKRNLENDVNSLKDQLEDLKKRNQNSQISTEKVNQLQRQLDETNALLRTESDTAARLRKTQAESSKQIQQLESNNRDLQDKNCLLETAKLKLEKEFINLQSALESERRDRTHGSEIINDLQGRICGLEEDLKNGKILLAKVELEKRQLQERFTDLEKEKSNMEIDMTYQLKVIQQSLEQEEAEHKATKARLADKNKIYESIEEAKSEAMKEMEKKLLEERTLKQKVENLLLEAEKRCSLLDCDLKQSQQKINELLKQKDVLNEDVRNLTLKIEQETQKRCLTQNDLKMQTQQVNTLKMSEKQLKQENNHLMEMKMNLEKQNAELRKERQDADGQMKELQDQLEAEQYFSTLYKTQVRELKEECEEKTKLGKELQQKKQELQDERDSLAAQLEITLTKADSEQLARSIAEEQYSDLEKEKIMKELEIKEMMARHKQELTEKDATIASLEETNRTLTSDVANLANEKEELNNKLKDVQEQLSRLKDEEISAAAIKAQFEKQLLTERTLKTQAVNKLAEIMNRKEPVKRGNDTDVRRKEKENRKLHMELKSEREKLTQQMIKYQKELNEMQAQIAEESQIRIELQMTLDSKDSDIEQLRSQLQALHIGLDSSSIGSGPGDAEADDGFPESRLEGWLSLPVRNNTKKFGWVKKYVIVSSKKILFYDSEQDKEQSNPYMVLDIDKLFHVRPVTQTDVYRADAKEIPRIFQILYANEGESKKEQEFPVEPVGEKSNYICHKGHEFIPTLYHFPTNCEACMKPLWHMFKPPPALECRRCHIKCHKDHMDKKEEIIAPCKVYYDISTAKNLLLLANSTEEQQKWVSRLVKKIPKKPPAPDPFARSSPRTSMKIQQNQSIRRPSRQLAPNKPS

| SMILES | IC50 [1] [µM] | IC50 [2] [µM] | IC50 [3] [µM] | IC50 [4] [µM] |
| --- | --- | --- | --- | --- |
| C[C@@H](N)[C@H]1CC[C@H](C(=O)Nc2ccnc3[nH]ccc23)CC1 | 0.01 | 0.03 | 0.29 | – |
| Cc1cncc2cccc(S(=O)(=O)N3CCCNC[C@@H]3C)c12 | – | – | – | 3.03 |
